Reference: ChEMBL document CHEMBL5154930, “Design, Synthesis, and Biological Evaluations of DOT1L Peptide Mimetics Targeting the Protein-Protein Interactions between DOT1L and MLL-AF9/MLL-ENL” (J Med Chem, 2022)
pIC50: −log10 of the molar value. Calls of active or inactive are those of the source. No cut-off for these calls is given here.

Assays:
MOLM-13 [1] = test: Down regulation of DCUN1D1 gene in human MOLM-13 cells by RNA-sequencing analysis; format: functional, cell-based
MOLM-13 [2] = test: Inhibition of methylation of H3K79 in human MOLM-13 cells assessed as inhibition of methylation at HOXA5 gene cluster by chromatin immunoprecipitation assay; format: functional, cell-based
MOLM-13 [3] = test: Inhibition of methylation of H3K79 in human MOLM-13 cells assessed as inhibition of methylation at […] gene cluster by chromatin immunoprecipitation assay; format: functional, cell-based
MOLM-13 [4] = test: Inhibition of methylation of H3K79 in human MOLM-13 cells assessed as inhibition of methylation at HOXA2 gene cluster by chromatin immunoprecipitation assay; format: functional, cell-based
MOLM-13 [5] = test: cells; details: Homo sapiens, MOLM-13, 216 h
Description: Anticancer activity against human MOLM-13 cells harbouring MLL-AF9 assessed as inhibition of cell growth treated for 9 days measured by CCK-8 kit method

MOLM-13 [6] = test: cells; details: Homo sapiens, MOLM-13, 168 h
Description: Anticancer activity against human MOLM-13 cells harbouring MLL-AF9 assessed as inhibition of cell growth treated for 7 days measured by CCK-8 kit method

MOLM-13 [7] = test: Down regulation of HOXA3 gene in human MOLM-13 cells by RNA-sequencing analysis; format: functional, cell-based
MOLM-13 [8] = test: Inhibition of methylation of H3K79 in human MOLM-13 cells assessed as inhibition of methylation at HOXA6 gene cluster by chromatin immunoprecipitation assay; format: functional, cell-based
MOLM-13 [9] = test: Down regulation of CDKN1B gene in human MOLM-13 cells by RNA-sequencing analysis; format: functional, cell-based
MOLM-13 [10] = test: Down regulation of CDK1 gene in human MOLM-13 cells by RNA-sequencing analysis; format: functional, cell-based
KOPN-8 = test: cells; details: Homo sapiens, KOPN-8, 192 h
Description: Anticancer activity against human KOPN-8 cells harbouring MLL-ENL assessed as inhibition of cell growth treated for 8 days measured by CCK-8 kit method

MOLM-13 [11] = test: Inhibition of methylation of H3K79 in human MOLM-13 cells assessed as inhibition of methylation at HOXA-AS2 gene cluster by chromatin immunoprecipitation assay; format: functional, cell-based
MOLM-13 [12] = test: Down regulation of AC011043.1 gene in human MOLM-13 cells by RNA-sequencing analysis; format: functional, cell-based
MOLM-13 [13] = test: Inhibition of methylation of H3K79 in human MOLM-13 cells assessed as inhibition of methylation at HOXA3 gene cluster by chromatin immunoprecipitation assay; format: functional, cell-based
MOLM-13 [14] = test: Down regulation of TUBA1B gene in human MOLM-13 cells by RNA-sequencing analysis; format: functional, cell-based
MOLM-13 [15] = test: Inhibition of methylation of H3K79 in human MOLM-13 cells assessed as inhibition of methylation at HOXA4 gene cluster by chromatin immunoprecipitation assay; format: functional, cell-based
MOLM-13 [16] = test: cells; details: Homo sapiens, MOLM-13, 192 h
Description: Anticancer activity against human MOLM-13 cells harbouring MLL-AF9 assessed as inhibition of cell growth treated for 8 days measured by CCK-8 kit method

MOLM-13 [17] = test: Down regulation of CDK6 gene in human MOLM-13 cells by RNA-sequencing analysis; format: functional, cell-based
MOLM-13 [18] = test: Down regulation of JMJD1C gene in human MOLM-13 cells by RNA-sequencing analysis; format: functional, cell-based
MOLM-13 [19] = test: Down regulation of MEF2C gene in human MOLM-13 cells by RNA-sequencing analysis; format: functional, cell-based
MOLM-13 [20] = test: Inhibition of methylation of H3K79 in human MOLM-13 cells assessed as inhibition of methylation at HOXA11 gene cluster by chromatin immunoprecipitation assay; format: functional, cell-based
MOLM-13 [21] = test: Down regulation of PBX3 gene in human MOLM-13 cells by RNA-sequencing analysis; format: functional, cell-based
K562 = test: Anticancer activity against human K562 cells assessed as inhibition of cell growth treated for 8 days measured by CCK-8 kit method; format: functional, cell-based; details: K562, 192 h
MOLM-13 [22] = test: Induction of apoptosis in human MOLM-13 cells at 0.125 to 0.5 uM treated for 7 days by Annexin V-FITC/PI staining based flow cytometry analysis; format: functional, cell-based; details: dose 0.125-0.5 µM, time 7.0 day
MOLM-13 [23] = test: Down regulation of ARID1B gene in human MOLM-13 cells by RNA-sequencing analysis; format: functional, cell-based
MOLM-13 [24] = test: Inhibition of MEIS1 expression in human MOLM-13 cells at 0.25 uM by RT-qPCR analysis; format: functional, cell-based; details: time 2-6 day, TDE = time-dependent effect
MOLM-13 [25] = test: Down regulation of HOXA10 gene in human MOLM-13 cells by RNA-sequencing analysis; format: functional, cell-based
MOLM-13 [26] = test: Inhibition of methylation of H3K79 in human MOLM-13 cells assessed as inhibition of methylation at HOXA9 gene cluster by chromatin immunoprecipitation assay; format: functional, cell-based
MOLM-13 [27] = test: Down regulation of HPGD gene in human MOLM-13 cells by RNA-sequencing analysis; format: functional, cell-based

pIC50 (MOLM-13 [5]): 7.68
pIC50 (MOLM-13 [6]): 7.23
pIC50 (KOPN-8): 7.22
pIC50 (MOLM-13 [16]): 7.52
pIC50 (K562): 4.51
SMILES: CC(C)N(C[C@H]1O[C@@H](n2cnc3c(N)ncnc32)[C@H](O)[C@@H]1O)[C@H]1C[C@@H](CCc2nc3cc(C(C)(C)C)ccc3[nH]2)C1 [PINOMETOSTAT]
Activity (MOLM-13 [1]): Active
inhibition (MOLM-13 [2]): Active
inhibition (MOLM-13 [3]): Active
inhibition (MOLM-13 [4]): Active
Activity (MOLM-13 [7]): Active
inhibition (MOLM-13 [8]): Active
Activity (MOLM-13 [9]): Active
Activity (MOLM-13 [10]): Active
inhibition (MOLM-13 [11]): Active
Activity (MOLM-13 [12]): Active
inhibition (MOLM-13 [13]): Active
Activity (MOLM-13 [14]): Active
inhibition (MOLM-13 [15]): Active
Activity (MOLM-13 [17]): Active
Activity (MOLM-13 [18]): Active
Activity (MOLM-13 [19]): Active
inhibition (MOLM-13 [20]): Active
Activity (MOLM-13 [21]): Active
Activity (MOLM-13 [22]): Active
Activity (MOLM-13 [23]): Active
inhibition (MOLM-13 [24]): Tde
Activity (MOLM-13 [25]): Active
inhibition (MOLM-13 [26]): Active
Activity (MOLM-13 [27]): Active
